Peptide text beside a SMILES is read from it.
Conditions: mouse, in vivo, ip
Procedure: Finally, to examine whether 6KApoEp did enter the brain to interact with APP, we aimed to identify 6KApoEp in vehicle- and 6KApoEp-treated APP/PS1/E2/E3/E4 mouse brains by Western blotting with antibody against LDLR binding domain (residues 133–152) of human apoE that is the analogous epitope as 6KApoEp except for 6K. […] Moreover, we examined the stability of 6KApoEp in the mouse plasma at different incubation times (i.e., 0, 3, 6, 12, and 24 h) at 37 °C by Western blotting using the same antibody.
The right five lanes denote a series of 6KApoEp calibration peptides (i.e., 20, 40, 80, 160, and 320 ng). Brain homogenates were obtained from APP/PS1/E2 mice that received vehicle (APP/PS1/E2-V) or 6KApoEp (APP/PS1/E2-6KApoEp), APP/PS1/E3 mice that received vehicle (APP/PS1/E3-V) or 6KApoEp (APP/PS1/E3-6KApoEp), and APP/PS1/E4 mice that received vehicle (APP/PS1/E4-V) or 6KApoEp (APP/PS1/E4-6KApoEp) for 3 months starting at 12 months of age. B, Western blotting data for the calibration graph were obtained from a series of 6KApoEp calibration peptides (i.e., 20, 40, 80, 160, and 320 ng). […] Western blotting data for (B) included each mouse (n = 4 per group with two of each sex), and quantitative data were averaged. […] D, the experiment was performed four times, and quantitative data were averaged (Table S23). […]

CC(C)C[C@H](NC(=O)[C@H](CCCNC(=N)N)NC(=O)[C@@H](NC(=O)[C@H](CCCNC(=N)N)NC(=O)[C@H](CC(C)C)NC(=O)[C@H](CCCCN)NC(=O)[C@H](CCCCN)NC(=O)[C@H](CCCCN)NC(=O)[C@H](CCCCN)NC(=O)[C@H](CCCCN)NC(=O)[C@@H](N)CCCCN)C(C)C)C(=O)N[C@@H](C)C(=O)N[C@@H](CO)C(=O)N[C@@H](Cc1c[nH]cn1)C(=O)N[C@@H](CC(C)C)C(=O)N[C@@H](CCCNC(=N)N)C(=O)N[C@@H](CCCCN)C(=O)N[C@@H](CC(C)C)C(=O)N[C@@H](CCCNC(=N)N)C(=O)N[C@@H](CCCCN)C(=O)N[C@@H](CCCNC(=N)N)C(=O)N[C@@H](CC(C)C)C(=O)N[C@@H](CC(C)C)C(=O)N[C@@H](CCCNC(=N)N)C(=O)N[C@@H](CC(=O)O)C(=O)N[C@@H](C)C(=O)O [6KApoEp] (H-KKKKKKLRVRLASHLRKLRKRLLRDA-OH)
Whole-brain 6KApoEp level relative to the daily dose (7.5 μg): 3.4-6.7 times the daily dose
